Data reported in patent publication US9288983B2, “Compositions of dibromomalonamide and their use as biocides” (Dow Global Technologies LLC, priority 2009, dated 2016).
Like-named read-outs stand apart in the source and are kept apart here.

Tests used:
[1] = test system: mixture of Pseudomonas aeruginosa, Klebsiella pneumoniae, Staphylococcus aureus, and Bacillus subtilis; test: Growth inhibition assay (microtiter plate, OD580); type: cell-based; details: for I90 value: 24 hr; for % Inhibition of growth by single active / inhibition at 0.39 µg/mL / inhibition at 0.78 µg/mL / inhibition at 1.56 µg/mL / inhibition at 3.13 µg/mL / inhibition at 6.25 µg/mL / inhibition at 12.5 µg/mL / inhibition at 25 µg/mL: 24 h; for inhibition at 0.39 µg/mL / inhibition at 0.78 µg/mL / inhibition at 1.56 µg/mL / inhibition at 3.13 µg/mL / inhibition at 6.25 µg/mL / inhibition at 12.5 µg/mL / inhibition at 25 µg/mL: read-out: % Inhibition of growth by single active
From the text: Growth Inhibition Assay. […] Regardless of the mechanism of action, the impact of a biocide (or combination of biocides) can be measured over time on the basis of an increase in the size of the community.
The assay measures the efficacy of one or more biocides at preventing growth of a consortium of bacteria in a dilute mineral salts medium. The medium contains (in mg/l) the following components: FeCl3.6H2O (1); CaCl2.2H2O (10); MgSO4.7H2O (22.5); (NH4)2SO4 (40); KH2PO4 (10); K2HPO4 (25.5); Yeast Extract (10); and glucose (100). After all components are added to deionized water, the pH of the medium is adjusted to 7.5. Following filter sterilization, aliquots are dispensed in 100 ul quantities to sterile microtiter plate wells. Dilutions of DBMAL and/or “Biocide B” are then added to the microtiter plate. After preparing the combinations of actives as illustrated below, each well is inoculated with 100 μl of a cell suspension containing ca. […] cells per milliliter of a mixture of Pseudomonas aeruginosa, Klebsiella pneumoniae, Staphylococcus aureus, and Bacillus subtilis. The final total volume of medium in each well is 300 μl. Once prepared as described herein, the concentration of each active ranges from 25 ppm to 0.19 ppm as illustrated in Table 1. The resulting matrix allows testing of eight concentrations of each active and 64 combinations of actives in the ratios (of actives).
Controls (not shown) contain the medium with no biocide added. After preparing the combinations of actives as illustrated above, each well is inoculated with 100 μl of a cell suspension containing ca. […] cells per milliliter of a mixture of Pseudomonas aeruginosa, Klebsiella pneumoniae, Staphylococcus aureus, and Bacillus subtilis. The final total volume of medium in each well is 300 μl.
Immediately after the microtiter plates are prepared, the optical density (OD) readings for each well is measured at 580 nm and the plates are then incubated at 37° C. for 24 hr. After the incubation period, the plates are gently agitated before OD580 values are collected. The OD580 values at T0 are subtracted from T24 values to determine the total amount of growth (or lack thereof) that occurs. These values are used to calculate the percent inhibition of growth caused by the presence of each biocide and each of the 64 combinations.
where • CDBMAL: Concentration of DBMAL required to inhibit ˜90% of bacterial growth when used alone • CB: Concentration of biocide (B) required to inhibit ˜90% of bacterial growth when used alone. • MDBMAL: Concentration of DBMAL required to inhibit ˜90% of bacterial growth when used in combination with biocide (B). • MB: Concentration of biocide (B) required to inhibit ˜90% of bacterial growth when used in combination with DBMAL
(§1) The SI values are interpreted as follows: • SI<1: Synergistic combination • SI=1: Additive combination • SI>1: Antagonistic combination
(§2) In the Examples below, the amounts of biocides in the solution are measured in mg per liter of solution (mg/l). Since solution densities are approximately 1.0, the mg/l measurement corresponds to weight ppm. Both units may therefore be used interchangeably in the Examples.

[2] = test system: mixture of Pseudomonas aeruginosa ATCC 10045 and Staphylococcus aureus ATCC 6538; test: Kill assay (minimum biocide concentration, MBC); type: cell-based; details: single active, 37° C., 2 hours
Protocol: The procedure is as follows.
as §1, §2

| SMILES | I90 value ([1]; Example 3, single active) | MBC (minimum biocide concentration needed to completely kill the bacterial cells), biocide alone [2] | inhibition at 0.39 µg/mL ([1]; Table 3, 0.39 mg/l alone) | inhibition at 0.78 µg/mL ([1]; Table 3, 0.78 mg/l alone) | inhibition at 1.56 µg/mL ([1]; Table 3, 1.56 mg/l alone) | inhibition at 3.13 µg/mL ([1]; Table 3, 3.13 mg/l alone) | inhibition at 12.5 µg/mL ([1]; Table 3, 12.5 mg/l alone) | I90 value ([1]; Example 2, single active) | inhibition at 0.78 µg/mL ([1]; Table 9, 0.78 mg/l alone) | inhibition at 1.56 µg/mL ([1]; Table 9, 1.56 mg/l alone) | inhibition at 3.13 µg/mL ([1]; Table 9, 3.13 mg/l alone) | inhibition at 6.25 µg/mL ([1]; Table 9, 6.25 mg/l alone) | I90 value ([1]; Example 4, single active) | other results |
| --- | --- | --- | --- | --- | --- | --- | --- | --- | --- | --- | --- | --- | --- | --- |
| N#CSCSC#N [MBT, methylene bis(thiocyanate)] | 0.78 mg/L | – | – | – | – | – | – | – | – | – | – | – | – | % Inhibition of growth by single active ([1]; Table 7, 0.39 mg/l alone): 24% |
| O=[N+]([O-])C(Br)(CO)CO [Bronopol, 2-bromo-2-nitropropane-1,3-diol] | – | >150 µg/mL | 0% | 0% | 0% | 67% | 99% | – | – | – | – | – | – | inhibition at 6.25 µg/mL ([1]; Table 3, 6.25 mg/l alone): 96%; inhibition at 25 µg/mL ([1]; Table 3, 25.0 mg/l alone): 97% |
| O=[N+]([O-])C(Br)=Cc1ccccc1 [BNS, bromonitrostyrene] | – | – | – | – | – | – | – | 6.25 mg/L | – | – | – | – | – | % Inhibition of growth by single active ([1]; Table 5, 0.78 mg/l alone): 19%; % Inhibition of growth by single active ([1]; Table 5, 1.56 mg/l alone): 42%; % Inhibition of growth by single active ([1]; Table 5, 3.13 mg/l alone): 75% |
| N#CCCC(Br)(C#N)CBr (stereo not drawn) [DBDCB, 1,2-Dibromo-2,4-dicyanobutane] | – | – | – | – | – | – | – | – | 0% | 17% | 43% | 100% | 6.25 mg/L | inhibition at 0.39 µg/mL ([1]; Table 9, 0.39 mg/l alone): 0%; inhibition at 12.5 µg/mL ([1]; Table 9, 12.5 mg/l alone): 99%; inhibition at 25 µg/mL ([1]; Table 9, 25.0 mg/l alone): 97% |
| NC(=O)C(Br)(Br)C(N)=O [DBMAL, 2,2-dibromomalonamide] | 12.5 mg/L | 66.7 µg/mL | 8% | 12% | 13% | 17% | 97% | 12.5 mg/L | 11% | 14% | 20% | 100% | 6.25 mg/L | inhibition at 0.39 µg/mL ([1]; Table 5, 0.39 mg/l alone): 1%; inhibition at 3.13 µg/mL ([1]; Table 5, 3.13 mg/l alone): 34%; inhibition at 6.25 µg/mL ([1]; Table 5, 6.25 mg/l alone): 65%; inhibition at 25 µg/mL ([1]; Table 5, 25.0 mg/l alone): 98%; inhibition at 0.39 µg/mL ([1]; Table 7, 0.39 mg/l alone): 23%; inhibition at 0.78 µg/mL ([1]; Table 7, 0.78 mg/l alone): 58%; inhibition at 1.56 µg/mL ([1]; Table 7, 1.56 mg/l alone): 52%; inhibition at 3.13 µg/mL ([1]; Table 7, 3.13 mg/l alone): 61%; inhibition at 6.25 µg/mL ([1]; Table 7, 6.25 mg/l alone): 41%; inhibition at 25 µg/mL ([1]; Table 7, 25.0 mg/l alone): 98% |
